Legend:
[1] = tested on: barnyardgrass; assay: Test A preemergence; format: in vivo, Echinochloa crus-galli; conditions: preemergence
Procedure, shortened: (§1)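 Seeds were sown in a loam soil–sand blend and given a directed soil spray preemergence; postemergence plants at 2–10 cm, one- to two-leaf stage, were sprayed with compound in non-phytotoxic solvent with surfactant. After about 10 days in a greenhouse, injury was visually rated against untreated controls (0 = no effect, 100 = complete control).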

[2] = tested on: crabgrass, large; assay: Test A preemergence; format: in vivo, Digitaria sanguinalis; conditions: preemergence
Procedure, shortened: as §1

[3] = tested on: foxtail, giant; assay: Test A preemergence; format: in vivo, Setaria faberii; conditions: preemergence
Procedure, shortened: as §1

[4] = tested on: morningglory; assay: Test A preemergence; format: in vivo, Ipomoea spp.; conditions: preemergence
Procedure, shortened: as §1

[5] = tested on: pigweed; assay: Test A preemergence; format: in vivo, Amaranthus retroflexus; conditions: preemergence
Procedure, shortened: as §1

[6] = tested on: velvetleaf; assay: Test A preemergence; format: in vivo, Abutilon theophrasti; conditions: preemergence
Procedure, shortened: as §1

[7] = tested on: wheat; assay: Test A preemergence; format: in vivo, Triticum aestivum; conditions: preemergence
Procedure, shortened: as §1

[8] = tested on: corn; assay: Test A preemergence; format: in vivo, Zea mays; conditions: preemergence
Procedure, shortened: as §1

[9] = tested on: barnyardgrass; assay: Test A postemergence; format: in vivo, Echinochloa crus-galli
Procedure, shortened: as §1

[10] = tested on: crabgrass, large; assay: Test A postemergence; format: in vivo, Digitaria sanguinalis
Procedure, shortened: as §1

[11] = tested on: foxtail, giant; assay: Test A postemergence; format: in vivo, Setaria faberii
Procedure, shortened: as §1

[12] = tested on: morningglory; assay: Test A postemergence; format: in vivo, Ipomoea spp.
Procedure, shortened: as §1

[13] = tested on: pigweed; assay: Test A postemergence; format: in vivo, Amaranthus retroflexus
Procedure, shortened: as §1

[14] = tested on: velvetleaf; assay: Test A postemergence; format: in vivo, Abutilon theophrasti
Procedure, shortened: as §1

[15] = tested on: wheat; assay: Test A postemergence; format: in vivo, Triticum aestivum
Procedure, shortened: as §1

[16] = tested on: corn; assay: Test A postemergence; format: in vivo, Zea mays
Procedure, shortened: as §1

[17] = tested on: rice; assay: Test B flood; format: in vivo, Oryza sativa; conditions: 250 g ai/ha, visual rating on 0 to 100 scale (0 no effect, 100 complete control), 13 to 15 days
Procedure, shortened: (§2)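 Each compound is applied to the floodwater of pots holding 2-leaf seedlings, water standing 3 cm over the soil throughout. Plants stay in a greenhouse 13 to 15 days before visual scoring against controls from 0 (no effect) to 100 (complete control).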

[18] = tested on: sedge, umbrella; assay: Test B flood; format: in vivo, Cyperus difformis; conditions: 250 g ai/ha, visual rating on 0 to 100 scale (0 no effect, 100 complete control), 13 to 15 days
Procedure, shortened: as §2

[19] = tested on: ducksalad; assay: Test B flood; format: in vivo, Heteranthera limosa; conditions: 250 g ai/ha, visual rating on 0 to 100 scale (0 no effect, 100 complete control), 13 to 15 days
Procedure, shortened: as §2

[20] = tested on: barnyardgrass; assay: Test B flood; format: in vivo, Echinochloa crus-galli; conditions: 250 g ai/ha, visual rating on 0 to 100 scale (0 no effect, 100 complete control), 13 to 15 days
Procedure, shortened: as §2

[21] = 125 g ai/ha, visual injury, 0 to 100 scale, approx. 10 days
[22] = 500 g ai/ha, visual injury after approx. 10 days, 0 to 100 scale (0 no effect, 100 complete control)
[23] = Postemergence, 125 g ai/ha, 0 to 100 scale, 0 no effect, 100 complete control
[24] = Postemergence, 500 g ai/ha, visual rating after approx. 10 days, 0 to 100 scale (0 no effect, 100 complete control)
[25] = postemergence, 125 g ai/ha, about 10 days, visual rating on 0 to 100 scale (0 no effect, 100 complete control)

Compound	Barnyardgrass plant response rating [1, 21]	Barnyardgrass plant response rating [1, 22]	Crabgrass, Large plant response rating [2, 21]	Crabgrass, Large plant response rating [2, 22]	Foxtail, Giant plant response rating [3, 21]	Foxtail, Giant plant response rating [3, 22]	Morningglory plant response rating [4, 21]	Morningglory plant response rating [4, 22]	Pigweed plant response rating [5, 21]	Pigweed plant response rating [5, 22]	Velvetleaf plant response rating [6, 21]	Velvetleaf plant response rating [6, 22]	Wheat plant response rating [7, 21]	Wheat plant response rating [7, 22]	Corn plant response rating [8, 21]	Corn plant response rating [8, 22]	Barnyardgrass plant response rating [9, 24]	Crabgrass, Large plant response rating [10, 24]	Crabgrass, Large plant response rating [10, 25]	Foxtail, Giant plant response rating [11, 24]	further results
CCCCNC(=O)c1cc(CC)n(Oc2ccnc(C(F)(F)F)c2)n1 [Compound 86]	0	50	50	80	0	80	0	20	0	0	0	0	0	0	0	20	20	50	10	40	Barnyardgrass plant response rating [9, 23]: 0; Foxtail, Giant plant response rating [11, 25]: 10; Morningglory plant response rating [12, 24]: 60; Morningglory plant response rating [12, 25]: 10; Pigweed plant response rating [13, 24]: 0; Pigweed plant response rating [13, 25]: 0; Velvetleaf plant response rating [14, 24]: 40; Velvetleaf plant response rating [14, 25]: 30; Wheat plant response rating [15, 24]: 10; Wheat plant response rating [15, 25]: 0; Corn plant response rating [16, 24]: 30; Corn plant response rating [16, 25]: 10; Plant response rating, Rice [17]: 0; Plant response rating, Sedge, Umbrella [18]: 40; Plant response rating, Ducksalad [19]: 0; Plant response rating, Barnyardgrass [20]: 0
CCc1cc(C(=O)NCC(F)(F)F)nn1Oc1cccc(C(F)(F)F)n1 [Compound 87]	0	0	0	80	0	0	0	10	0	40	0	0	0	0	0	0	0	10	0	0	Barnyardgrass plant response rating [9, 23]: 0; Foxtail, Giant plant response rating [11, 25]: 0; Morningglory plant response rating [12, 24]: 20; Morningglory plant response rating [12, 25]: 10; Pigweed plant response rating [13, 24]: 10; Pigweed plant response rating [13, 25]: 0; Velvetleaf plant response rating [14, 24]: 10; Velvetleaf plant response rating [14, 25]: 0; Wheat plant response rating [15, 24]: 0; Wheat plant response rating [15, 25]: 0; Corn plant response rating [16, 24]: 0; Corn plant response rating [16, 25]: 0; Plant response rating, Rice [17]: 0; Plant response rating, Sedge, Umbrella [18]: 0; Plant response rating, Ducksalad [19]: 0; Plant response rating, Barnyardgrass [20]: 0
CCCc1cc(C(=O)NCC(F)(F)F)nn1Oc1ccnc(C(F)(F)F)c1 [Compound 92]	0	90	20	100	20	100	0	20	40	100	0	0	0	20	0	40	40	30	0	50	Barnyardgrass plant response rating [9, 23]: 0; Foxtail, Giant plant response rating [11, 25]: 0; Morningglory plant response rating [12, 24]: 40; Morningglory plant response rating [12, 25]: 0; Pigweed plant response rating [13, 24]: 40; Pigweed plant response rating [13, 25]: 0; Velvetleaf plant response rating [14, 24]: 20; Velvetleaf plant response rating [14, 25]: 0; Wheat plant response rating [15, 24]: 20; Wheat plant response rating [15, 25]: 0; Corn plant response rating [16, 24]: 40; Corn plant response rating [16, 25]: 0; Plant response rating, Rice [17]: 0; Plant response rating, Sedge, Umbrella [18]: 50; Plant response rating, Ducksalad [19]: 50; Plant response rating, Barnyardgrass [20]: 0
CCCc1cc(C(=O)NC2CC2)nn1Oc1ccnc(C(F)(F)F)c1 [Compound 93]	0	90	70	100	30	100	0	50	30	100	0	0	0	30	0	80	40	80	20	80	Barnyardgrass plant response rating [9, 23]: 0; Foxtail, Giant plant response rating [11, 25]: 20; Morningglory plant response rating [12, 24]: 60; Morningglory plant response rating [12, 25]: 0; Pigweed plant response rating [13, 24]: 60; Pigweed plant response rating [13, 25]: 20; Velvetleaf plant response rating [14, 24]: 20; Velvetleaf plant response rating [14, 25]: 0; Wheat plant response rating [15, 24]: 40; Wheat plant response rating [15, 25]: 20; Corn plant response rating [16, 24]: 90; Corn plant response rating [16, 25]: 0; Plant response rating, Rice [17]: 0; Plant response rating, Sedge, Umbrella [18]: 50; Plant response rating, Ducksalad [19]: 50; Plant response rating, Barnyardgrass [20]: 0
CCc1cc(C(=O)NOC)nn1Cc1ccnc(C(F)(F)F)c1 [Compound 99]	40	100	100	100	90	100	60	100	90	100	10	80	0	60	50	90	90	100	60	100	Barnyardgrass plant response rating [9, 25]: 20; Foxtail, Giant plant response rating [11, 25]: 60; Morningglory plant response rating [12, 24]: 100; Morningglory plant response rating [12, 25]: 50; Pigweed plant response rating [13, 24]: 100; Pigweed plant response rating [13, 25]: 70; Velvetleaf plant response rating [14, 24]: 90; Velvetleaf plant response rating [14, 25]: 20; Wheat plant response rating [15, 24]: 70; Wheat plant response rating [15, 25]: 20; Corn plant response rating [16, 24]: 90; Corn plant response rating [16, 25]: 50; Plant response rating, Rice [17]: 0; Plant response rating, Sedge, Umbrella [18]: 75; Plant response rating, Ducksalad [19]: 50; Plant response rating, Barnyardgrass [20]: 0

— patent US20150105252A1, “SUBSTITUTED PYRAZOLES AS HERBICIDES” (E I DU PONT DE NEMOURS AND COMPANY, priority 2013, published 2015)
